From patent US7790733B2, “8-alkoxy or cycloalkoxy-4-methyl-3,4-dihydro-quinazolin-2-ylamines” (Hoffman-La Roche Inc., priority 2005, dated 2010)

target: T1, recombinant human 5-HT5A receptor (Homo sapiens, UniProt P47898); assay: [3H]LSD radioligand binding assay, recombinant human 5-HT5A receptor in HEK-EBNA cell membranes; settings: [3H]LSD approx. 1 nM; membranes from HEK-EBNA cells transiently expressing 5-HT5A; Ki from IC50 by Cheng-Prussoff equation
T1 construct: expressed in transfected cells; host or cells: Human Embryonic Kidney-EBNA (HEK-EBNA) cells, transient cDNA expression, membranes
T1 sequence (P47898 whole entry): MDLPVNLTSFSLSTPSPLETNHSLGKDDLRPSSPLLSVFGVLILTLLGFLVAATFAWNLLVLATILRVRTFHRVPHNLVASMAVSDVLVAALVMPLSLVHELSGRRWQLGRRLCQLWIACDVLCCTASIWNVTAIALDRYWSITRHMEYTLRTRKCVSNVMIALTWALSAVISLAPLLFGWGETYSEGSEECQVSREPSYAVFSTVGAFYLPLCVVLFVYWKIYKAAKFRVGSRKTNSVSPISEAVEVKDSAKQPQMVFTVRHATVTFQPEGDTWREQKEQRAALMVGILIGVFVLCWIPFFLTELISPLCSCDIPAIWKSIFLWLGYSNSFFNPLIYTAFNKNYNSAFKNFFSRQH
Method: A [^3H]LSD radioligand binding assay was used to determine the affinity of the compounds for the recombinant human 5-HT5A receptor, in membranes from transiently (cDNA) expressed 5-HT5A receptors in Human Embryonic Kidney-EBNA (HEK-EBNA) cells. Assay buffer consisted of Tris (50 mM) buffer containing 1 mM EGTA, 10 mM MgCl2 (pH 7.4) and 10 μM pargyline. The binding assay was carried out in 96-well-plates in the presence of [^3H]LSD (approximately 1 nM), approximately 2 μg/well of membrane protein, and 0.5 mg of Ysi-poly-1-lysine SPA beads in a final volume of 200 μl of buffer. Non-specific binding was defined using methiothepin 2 μM. Compounds were tested at 10 concentrations. All assays were conducted in duplicate and repeated at least two times. Assay plates were incubated for 120 min at room temperature before centrifugation. Bound ligand was determined using a Packard Topcount scintillation counter. IC50 values were calculated using a non-linear curve fitting program and Ki values calculated using the Cheng-Prussoff equation. The activity of representative compounds (≦0.05 μM) is described in the table below: […]

Going from COc1cccc2c1N=C(N)NC2C (centres unmarked) [Example 1, 8-Methoxy-4-methyl-3,4-dihydro-quinazolin-2-ylamine] to CCOc1cccc2c1N=C(N)NC2C (centres unmarked) [Example 8, 8-Ethoxy-4-methyl-3,4-dihydro-quinazolin-2-ylamine], the Ki rises from 0.00634 µM to 0.0372 µM (5.9-fold).

Compared with CC(C)Oc1cccc2c1N=C(N)NC2C (centres unmarked) [Example 2, 8-Isopropoxy-4-methyl-3,4-dihydro-quinazolin-2-ylamine], CNC1=Nc2c(OC(C)C)cccc2C(C)N1 (centres unmarked) [Example 5, (8-Isopropoxy-4-methyl-3,4-dihydro-quinazolin-2-yl)-methyl-amine] is 2.6-fold higher in Ki: 0.00996 µM for the first, 0.0254 µM for the second.

Going from CCOc1cccc2c1N=C(NCC(F)F)NC2C (centres unmarked) [Example 3, (2,2-Difluoro-ethyl)-(8-ethoxy-4-methyl-3,4-dihydro-quinazolin-2-yl)-amine] to COc1cccc2c1N=C(NCC(F)F)NC2C (centres unmarked) [Example 6, (2,2-Difluoro-ethyl)-(8-methoxy-4-methyl-3,4-dihydro-quinazolin-2-yl)-amine], the Ki rises from 0.0141 µM to 0.0282 µM (2-fold). The first binds more tightly here.

CC(C)Oc1cccc2c1N=C(NCC(F)F)NC2C (centres unmarked) [Example 4, (2,2-Difluoro-ethyl)-(8-isopropoxy-4-methyl-3,4-dihydro-quinazolin-2-yl)-amine] and CC1NC(NCC(F)F)=Nc2c(OC3CCCC3)cccc21 (centres unmarked) [Example 17, (8-Cyclopentyloxy-4-methyl-3,4-dihydro-quinazolin-2-yl)-(2,2-difluoro-ethyl)-amine] are within 1.5-fold of each other in Ki: 0.0232 µM for the first, 0.0224 µM for the second.

CCOc1cccc2c1N=C(NC)NC2C (centres unmarked) [Example 7, (8-Ethoxy-4-methyl-3,4-dihydro-quinazolin-2-yl)-methyl-amine] and CNC1=Nc2c(OC)cccc2C(C)N1 (centres unmarked) [Example 9, (8-Methoxy-4-methyl-3,4-dihydro-quinazolin-2-yl)-methyl-amine] are within 1.5-fold of each other in Ki: 0.0345 µM for the first, 0.0384 µM for the second.

First: CNC1=Nc2c(OC3CCCC3)cccc2C(C)N1 (centres unmarked) [Example 16, (8-Cyclopentyloxy-4-methyl-3,4-dihydro-quinazolin-2-yl)-methyl-amine]
Second: COc1cc(Cl)c(C)c2c1N=C(NC1CCC1)NC2C (centres unmarked) [Example 19, (6-Chloro-8-methoxy-4,5-dimethyl-3,4-dihydro-quinazolin-2-yl)-cyclobutyl-amine]
The Ki of the first is 2.9-fold lower: 0.0162 µM for the first, 0.0475 µM for the second.

Compared with COc1cc(Cl)c(C)c2c1N=C(N)NC2C (centres unmarked) [Example 18, 6-Chloro-8-methoxy-4,5-dimethyl-3,4-dihydro-quinazolin-2-ylamine], CNC1=Nc2c(OC)cc(Cl)c(C)c2C(C)N1 (centres unmarked) [Example 20, (6-Chloro-8-methoxy-4,5-dimethyl-3,4-dihydro-quinazolin-2-yl)-methyl-amine] is 9.1-fold higher in Ki: 0.0047 µM for the first, 0.0426 µM for the second. The first binds more tightly here.
